We go through 1 substance from US20110059969A1, “PIPERAZINES AS ANTI-OBESITY AGENTS” (ASTRAZENECA AB, priority 2007, published 2011).

Assay [1] concerns JEG-3 cells. The experiment in a line: [3H]-thymidine incorporation by JEG-3 cells (JEG-3 protocol). The following applies: FIG. 5. The assay is classed as cell-based. On the procedure:
In JEG-3 cells (choriocarcinoma cell line) leptin is able to stimulate proliferation up to 3 fold (Biol. Reprod. (2007) 76: 203-10). […] The radioactivity incorporated by the cells is an index of their proliferative activity and is measured in counts per minute (CPM) with a liquid scintillation beta counter.
This finding can be applied to test whether a compound is able to either reproduce the effect of leptin on cell proliferation (leptin receptor agonist mimetic) (i.e., a given compound will cause an increase in incorporated [^3H]-Thymidine by the cells) or to inhibit the effect of leptin (antagonistic effect) by preventing the leptin-mediated increase in [^3H]-thymidine incorporation.
This approach has the advantage of using a non-recombinant system and has reasonable reproducibility and robustness.
(Incorporation of labelled thymidine or its analogues reports DNA synthesis.)

Assay [2] relates to JEG-3 cells. As to conditions: Biol. Reprod. (2007) 76: 203-10; cited from earlier work.

With “Leptin: hormone synthesized in fat cells that is believed to act in the hypothalamus to reduce food intake and body weight”, the EC50 in assay [1] (JEG-3 cells (choriocarcinoma cell line), read-out: EC50 of concentration-dependent increase in [3H]-thymidine incorporation) turned out to be 2.1 nM. The “concentration giving maximal effect on [3H]-thymidine incorporation” value in assay [1] (JEG-3 cells) is given as 100 nM. The stimulation of proliferation entry in assay [2] is “up to 3 fold”.
